# Experimental data published in patent publication US20240285543A1, “NANOPARTICLE-MEDIATED ENHANCEMENT OF IMMUNOTHERAPY TO PROMOTE FERROPTOSIS-INDUCED CYTOTOXICITY AND ANTITUMOR IMMUNE RESPONSES” (Memorial Sloan-Kettering Cancer Center, priority 2021, published 2024).
# Legend:
# B16-F10 tumors = experiment: B16-F10 melanoma tumor growth inhibition and TME analysis; format: in vivo, mice
# Description: FIGS. 15A-15C show C′ dots inhibit melanoma tumor growth via ferroptotic induction and pro-inflammatory responses. […] Data represents analyses of n=4 mice per group, mean±s.e.m. *p<0.05 (non-parametric 2-way ANOVA).
# Data represent mean±s.e.m. **** saline-PD1: P=0.0001; **** saline-alpha-MSH: P=0.0001; **** saline-(anti-PD1+alpha-MSH): P<0.0001; **PD1-(anti-PD1+alpha-MSH): P=0.0017; **alpha-MSH-(anti-PD1+alpha-MSH): P=0.0017.
# The present example describes a statistically significant and marked drop in tumor volume (red curve) to nearly 65% of control values (blue curve) following a multiple, high-dose (60 μM) regimen of i.v.-injected αMSH-PEG-C′ dots in B16-F10 mice when tumors reached […]. […] To evaluate the extent of immune cell infiltration, IHC was performed to assess for Iba1, CD3, CD4, and CD8 expression, with results graphically depicted in FIG. 15C. […]
# Particles have been either injected as multiple doses (n=3) alone or concomitantly with either the first three doses (“early”, on days 7, 10, and 13) or the final three doses (“late”, on days 16, 19, and 22) of anti-PD-1 (250 μg/mouse), anti-CTLA4 (100 μg/mouse), or anti-PD-1+anti-CTLA4 antibody regimens (see FIG. 12). […] It can then be determined whether the order of administration of these agents is important in terms of modulating overall treatment responses.
# PSMA [1] = target: T1, PSMA (Homo sapiens, UniProt Q04609); parameters: compiled for 40 patients treated with ^225Ac-PSMA-617; host or cells: patients (mCRPC); settings: cited from earlier work; for clinical response: mCRPC patients
# Target sequence in this assay (Q04609 whole entry): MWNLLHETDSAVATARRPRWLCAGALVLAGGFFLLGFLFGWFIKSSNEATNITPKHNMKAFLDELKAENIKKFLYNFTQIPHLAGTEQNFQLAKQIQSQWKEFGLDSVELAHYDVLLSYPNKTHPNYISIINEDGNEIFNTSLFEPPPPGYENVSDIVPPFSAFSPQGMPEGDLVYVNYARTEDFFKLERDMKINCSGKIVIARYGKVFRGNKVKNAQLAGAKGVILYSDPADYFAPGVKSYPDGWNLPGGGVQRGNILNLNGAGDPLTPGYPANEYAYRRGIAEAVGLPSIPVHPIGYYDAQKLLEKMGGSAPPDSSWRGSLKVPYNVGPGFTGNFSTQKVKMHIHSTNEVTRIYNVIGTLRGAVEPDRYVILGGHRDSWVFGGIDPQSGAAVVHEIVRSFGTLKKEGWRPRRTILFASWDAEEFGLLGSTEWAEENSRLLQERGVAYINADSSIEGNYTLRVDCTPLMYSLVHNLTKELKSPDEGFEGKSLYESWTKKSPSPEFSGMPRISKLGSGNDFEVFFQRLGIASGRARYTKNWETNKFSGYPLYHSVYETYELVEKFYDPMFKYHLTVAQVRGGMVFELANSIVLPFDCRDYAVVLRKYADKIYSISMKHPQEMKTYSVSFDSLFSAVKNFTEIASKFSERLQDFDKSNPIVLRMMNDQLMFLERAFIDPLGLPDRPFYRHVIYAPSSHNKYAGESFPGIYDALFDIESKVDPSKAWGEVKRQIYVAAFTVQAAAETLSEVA
# MC1-R = experiment: IC50 (M)
# Description: Table printed on a drawing sheet, FIG. 13F
# (§1) Head of the field: IC50 (M)
# The patent's description of the figure: FIGS. 13A-13F show characterization of a lead alpha-MSH peptide-linker conjugate. Structural schematics of representative alpha-MSH peptides. […] FIG. 13B, FIG. 13C each show second generation peptides with reduced hydrophobicity containing PEG2 and one Ahx spacer: (FIG. 13B) PEG2-Ahx-d-Lys-alpha-MSH (yellow closed circle in FIG. 13E); and (FIG. 13C) PEG2-d-Lys-Ahx-alpha-MSH (green triangle in FIG. 13E). […] FIG. 13E and FIG. 13F show IC50 determination of MC1-R targeting Re-cyclized and lactam-cyclized peptides.
# First copying reader's note: IC50 values belong to the competitive binding curves of FIG. 13E on the same sheet.
# Where the first naming reader finds the target: head: MC1-R-Targeting Peptide Linker Sequences
# PSMA [2] = target: T1, PSMA
# Description: Table printed on a drawing sheet, FIG. 25
# as §1
# Target sequence in this assay (Q04609 whole entry, looked up): as the sequence (Q04609 whole entry) above
# The patent's description of the figure: FIG. 25 show PSMA-targeting peptide-linkers, according to embodiments of the present disclosure.
# Where the first naming reader finds the target: head: PSMA-Targeting Peptide-Linker Sequences
compound,measurement,setting,value
Clc1cccc(CN=C2Nc3ccccc3NC23CCNCC3)c1 [liproxstatin-1],H&E staining of tumor tissue,B16-F10 tumors; after final dose,reversed
same,effect of i.p. liproxstatin-1 on particle-induced tumor volume drop,"B16-F10 tumors; mouse, in vivo, ip",substantially attenuated
O=C([O-])CC[C@H](NC(=O)N[C@@H](CCCCNC(=O)[C@H](Cc1ccc2ccccc2c1)NC(=O)[C@H]1CC[C@H](CNC(=O)CN2CCN(CC(=O)[O-])CCN(CC(=O)[O-])CCN(CC(=O)[O-])CC2)CC1)C(=O)[O-])C(=O)[O-].[225Ac].[H+].[H+].[H+] [^225Ac-PSMA-617],salivary gland toxicity,PSMA [1]; 40 patients,frequent occurrence of severe xerostomia
same,patients who discontinued treatment due to xerostomia,PSMA [1]; clinical trial,~23%
same,clinical response,PSMA [1],remarkable results
Ac-Cys-(Ahx)2-dLys-Re(CCMSH) [Prototype αMSH],IC50,MC1-R,7 nM
"CC(=O)N[C@@H](CS)C(=O)NCCCCCC(=O)NCCCCCC(=O)N[C@H](CCCCN)C(=O)NCCCCCC(=O)NCCCC[C@H](NC(=O)N[C@@H](CCC(=O)O)C(=O)O)C(=O)O [Prototype PSMAi, hooc-Lys(-Ahx-dLys(-nh2)-(Ahx)2-Cys-Ac)-'CO'-Glu-cooh]",IC50,PSMA [2],4.5 nM
Ac-Cys-PEG2-dLys-Ahx-Nle-Re(CCMSH) [2nd gen αMSH (#2)],IC50,MC1-R,71 nM
O=C([O-])CN1CCN(CC(=O)[O-])CCN(CC(=O)NCC2CCC(C(=O)N[C@@H](Cc3ccc4ccccc4c3)C(=O)NCCCC[C@H](NC(=O)N[C@@H](CCC(=O)O)C(=O)O)C(=O)O)CC2)CCN(CC(=O)[O-])CC1.[177Lu+3] (stereo partly shown) [^177Lu-PSMA-617],clinical response,PSMA [1],high response rate
"O=C(O)CC[C@H](NC(=O)N[C@@H](CCCCNC(=O)[C@H](Cc1ccc2ccccc2c1)NC(=O)[C@H]1CC[C@H](CNC(=O)CN2CCN(CC(=O)O)CCN(CC(=O)O)CCN(CC(=O)O)CC2)CC1)C(=O)O)C(=O)O [PSMA-617, hooc-Lys(-2Nal-Tran-DOTA)-'CO'-Glu-cooh]",IC50,PSMA [2],21 nM
